According to patent US20120263762A1, “STABILISED PARTICLES COMPRISING 5-METHYL-(6S)-TETRAHYDROFOLATE” (BAYER PHARMA AKTIENGESELLSCHAFT, priority 2009, published 2012):

Assay: Particle size distribution of particles (laser diffraction, volume distribution)
Type: physicochemical
Details: micronized active ingredient before coating
Source text: When used herein, the term “d90 particle size” is intended to mean that the particle size distribution is so that at least 90% of the particles have a particle diameter of less than the specified value, calculated from the volume distribution curve under the presumption of spherical particles. In a similar way, the term “d50 particle size” is intended to mean that the particle size distribution is so that at least 50% of the particles have a particle diameter of less than the specified value, calculated from the volume distribution curve under the presumption of spherical particles.
Therefore, it is important to note that whenever the terms “particle size”, “particle size distribution”, “particle diameter”, “d90”, “d50”, etc., are used herein it should be understood that the specific values or ranges used in connection therewith are always meant to be determined from the volume distribution curve under the presumption of spherical particles. The particle size distribution may be determined by various techniques, e.g. laser diffraction, and will be known to the person skilled in the art. […] The particle size distribution of the particles, when incorporated in a wafer, may be determined by dissolving the film forming matrix, separation of the protected particles, and drying the protected particles. […]

d50: 2.2 μm
d90: 4.8 μm
Structure (SMILES): C[C@]12CCC(=O)C=C1[C@@H]1C[C@@H]1[C@H]1[C@@H]3[C@@H]4C[C@@H]4[C@@]4(CCC(=O)O4)[C@@]3(C)CC[C@@H]12 [drospirenone]
